Measurements taken from patent publication US12491188B2, “Small molecule PARG inhibitors and methods of use thereof” (Board of Regents, The University of Texas System, priority 2019, dated 2025).

What was measured:
[1] = system: MDA-MB-231 control and PARG-KD cells; assay: Western blot of cellular PARylation (anti-PAR); format: cell-based, human
Experimental: Thus, dose-dependent JA2131-induced cellular PARylation with and without IR was investigated. For combined IR treatment, MDA-MB-231 cells were treated with JA2131 for 2 h, followed by 7 Gy X-ray and then allowed to recover for an hour before cellular extraction and Western blotting analysis.
Using shRNA, next, a stable MDA-MB-231 PARG knockdown (PARG-KD) cell-line was generated (FIG. 23). Comparison of PARGi JA2131-induced PARylation in PARG-KD and control cells was performed. It was reasoned that PARG-KD cells would show a reduced response to a selective PARGi as the stable PARG-KD cells would have to adopt a PARG-independent survival mechanism. MDA-MB-231 control cells and PARG-KD cells were treated with JA2131 then total cell lysates were subjected to immunoblotting with anti-PAR antibody, followed by immunodetection for anti-PARG, PARP1 and actin antibody (FIG. 22b). Untreated PARG-KD cells show a higher baseline level of PARylation than the control cells. […] Dose-response curves comparing control and PARG-KD cells further validate the selective action of JA2131 on control cells expressing PARG, but not on the PARG-KD cells (FIG. 25).
Antibodies and western blots. Cells were grown in 6-well plates and 10 cm dishes, treated with PARGi for 2 hours, irradiated and recovered for 1 hour before harvesting. Cells were irradiated, ranging from 1 to 10 Gy using RAD SOURCE, RS-2000, Biological System, RadSource.com. Cells were washed with phosphate buffer and saline (PBS) and lysed with buffer containing 50 mM Hepes, pH 7.5, 1% (v/v) igepal-C630, 1 mg/ml bacitracin, 1 mM EDTA, 10 mM NaF, 1 mM sodium orthovanadate, 10% (v/v) glycerol, 50 mM NaCl, 1 mM PMSF, and Protease Inhibitor Cocktail Set III (EMD Millipore). The detergent-soluble fraction was used for Western blotting. Cell fractionation was carried out using the Subcellular Protein Fractionation Kit (#78840, ThermoFisher) according to the manufacturer's instruction. Primary antibodies were purchased from the following sources; Actin, γH2AX and Histone-H3 was from Cell Signaling Technology. H2AX and LAMB1 were from Invitrogen/ThermoFisher. PCNA and p53 were from Santa Cruz biotechnology. Anti-PAR (10H) was from EMD Millipore, anti-PARG was from Cell Signaling Technology, and Anti-PARP1 was from ABCAM. Secondary antibodies were conjugated HRP (Cell Signaling) and ECL Clarity was purchased from Bio-Rad. All primary and secondary antibodies were diluted 1:1000 with 5% non-fat Blotting Grade Blocking Reagent in 1× TBST, except for anti-PAR 1:500.

[2] = system: PARP inhibitor resistant SUM149PT cells; assay: PAR and γH2AX high content imaging in PARPi resistant cells; format: cell-based, human; settings: 10 μM, 2 hours, 3 Gy IR; four PARPi resistant clones and wild type
Experimental: PARPi resistant SUM149PT cells clone 6, 10, 11, 18 together with the wild type (WT) were treated with 10 μM JA2131 for 2 hours, irradiated 3Gy ionizing radiation and then fixed, immunofluorescence labelled for PAR and γH2AX. High content imaging showing specific accumulation of PAR and DNA damage induction observed with γH2AX signal in cells treated with PARGi. (Right) Immunoblotting of total cell-lysates of PARP1i resistant SUM149PT cells showing no change in the PARG (upper panel) and p53 (middle panel) protein expression level. Anti-actin was used as loading control (bottom panel).
PARG was evaluated as a therapeutic option for patients who become PARP1 inhibitor resistant. PARP1 inhibitor resistant SUM149PT triple negative breast cancer cell-lines were generated with 100 nM talazoparib for 5 constitutive days and then with 15-50 nM talazoparib until resistant cells grew into clones. The resulting resistant cell clones were propagated and expanded to generate PARP inhibitor resistant SUM149PT derivative cells that no longer responded to PARP1i treatment. It was then investigated whether the PARP resistant breast cancer cells would respond to the PARG inhibitors. Four PARPi resistant SUM149PT cell clones together with wild type cells were treated with JA2131. PAR accumulation and γH2AX foci formation were analyzed by high content imaging (FIG. 21).

PCNA in PC3 cells = PCNA in PC3 cells (Homo sapiens (Human), UniProt P12004); assay: Cellular thermal shift assay (CETSA), PCNA control; format: cell-based; settings: 10 μM, 2 h
PCNA in PC3 cells, sequence (P12004 whole entry): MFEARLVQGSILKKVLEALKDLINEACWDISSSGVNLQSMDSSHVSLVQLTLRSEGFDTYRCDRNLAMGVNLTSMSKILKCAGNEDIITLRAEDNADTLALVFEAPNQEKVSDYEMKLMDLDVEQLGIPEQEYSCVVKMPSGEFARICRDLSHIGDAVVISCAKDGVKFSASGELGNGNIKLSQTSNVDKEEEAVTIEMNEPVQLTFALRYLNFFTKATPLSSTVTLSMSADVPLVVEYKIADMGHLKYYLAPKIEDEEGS
Experimental: PC3 cells treated with 10 μM JA2131 or DMSO were temperature shocked as described in the Examples and the resulting non-aggregated proteins were analyzed with Anti-PARG or Anti-PCNA antibody. Anti-Histone H3 was used as loading control.
Cellular thermal shift assay (CETSA). CETSA was performed as described in Molina et al., 2013. Briefly, PC3 cells were treated with 10 μM JA2131 or an equivalent volume of DMSO for 2 h, washed three times with PBS and extracted for total cell lysate. 10% glycerol was added to the samples before subjecting to heat. Gradient thermal cycler (C1000 Touch, Bio-Rad) was used to heat samples at 42, 57, 66, 72, 77 and 85° C. for 3 min and chilled on ice for 5 min. Then, samples were centrifuged at 14,000 rpm for 20 min at 4° C. Supernatants were carefully removed and analyzed by Western blotting analysis.

SMILES: O=C1C(Cl)=C(Cl)C(Cl)(Cl)C(Cl)=C1Cl [JA2131]
- cellular PARylation, PARGi combined with IR ([1]; MDA-MB-231, 100 nM, 2 h, 7 Gy X-ray, 1 h recovery): massive increase in cellular PARylation
- cellular PARylation, PARGi alone ([1]; MDA-MB-231, without IR, 1 to 5 μM doses): dose-dependent increase in cellular PARylation
- PAR accumulation in PARG-KD cells ([1]; MDA-MB-231 PARG knockdown cells): did not affect the level of PAR accumulation
- PAR accumulation in control cells expressing PARG ([1]; MDA-MB-231 control cells): measurable increase in PAR
- PAR accumulation and γH2AX staining [2]: increased PAR accumulation as well as γH2AX staining
- change in thermal stability of PCNA control (PCNA in PC3 cells): no significant change
